Drawing on patent US5292901A, “Benzodioxole derivatives” (Eisai Co., Ltd., priority 1987, dated 1994), this text covers inhibition in vivo for 40 molecules.

Assay type in all cases: in vivo, male Fischer (F344) rats
Assay [1] relates to liver injury induced by D-galactosamine. Kind of assay: Experimental Example 1d: effect on liver injury induced by D-galactosamine in rats (group I-d). Conditions: Rattus norvegicus, Table 1d, D-galactosamine 300 mg/kg s.c., compound 50 mg/kg oral in distilled water or 0.5% methylcellulose, 48 h. The procedure: (§1) 300 mg/kg of D-galactosamine was administered to male Fischer (F344) rats weighing around 180 g by subcutaneous injection to induce liver injury. Each compound was dissolved in distilled water was given by oral administration in a dose of 50 mg/kg one hour after the injection of D-galactosamine.
(§2) The D-galactosamine was used in the form of a solution having a concentration of 200 mg/ml, obtained by dissolving D-galactosamine in a physiological saline solution to obtain a dilute D-galactosamine solution and adjusting the pH of the dilute solution to 7.0 with 10N aqueous potassium hydroxide.
(§3) Blood was collected from the rat's tail vein 48 h after the injection of D-galactosamine. The blood coagulation time was determined by the hepaplastin test (HPT) and GPT activity in the blood plasma was determined by an enzymatic method.

The test system is the same in assay [2]. The experiment in a line: Experimental Example 1e: effect on liver injury induced by D-galactosamine in rats (group I-e). Conditions: Rattus norvegicus, po, 48 h, Table 1e, D-galactosamine 400 mg/kg, compound 100 mg/kg in 0.5% aqueous methylcellulose. As to the method:
The D-galactosamine was used in the form of a solution having a concentration of 200 mg/ml, obtained by dissolving D-galactosamine in a physiological saline solution to obtain a dilute D-galactosamine solution and adjusting the pH of the dilute solution to 7.0 with 10N aqueous potassium hydroxide. Blood was collected from the rat's tail vein 48 h after the injection of D-galactosamine. The blood coagulation time was determined by the […]) and GPT activity in the blood plasma was determined by an enzymatic method.

Assay [3] shares this test system. Kind of assay: Experimental Example 1f: effect on liver injury induced by D-galactosamine in rats (group I-f). Conditions: Rattus norvegicus, po, 48 h, Table 1f, D-galactosamine 400 mg/kg, compound 100 mg/kg in 0.5% methylcellulose. The procedure: as §1, §2, §3
The test was conducted in the same way as shown in Experimental Example 1a except that 400 mg/kg of D-galactosamine was administered in its physiological saline solution and each test compound was used in an amount of 100 mg/kg in 0.5% methylcellulose liquid.

Assay [4] shares this test system. Kind of assay: Experimental Example 1b: effect on liver injury induced by D-galactosamine in rats (group I-b). Particulars: Rattus norvegicus, po, 48 h, Table 1b, D-galactosamine 400 mg/kg; for inhibition in vivo at 100 mg/kg: compound 100 mg/kg in 0.5% methylcellulose; for inhibition in vivo at 50 mg/kg: values marked *: administration of 50 mg/kg.
[5] abbreviates: read-out: Inhibition ratio (%) GPT.
Setting [6] is: read-out: Inhibition ratio (%) HPT.

With `N#CC(SCCc1ccc2c(c1)OCO2)C(=O)O` (centres unmarked) [Compound 28], the inhibition in vivo at 50 mg/kg in assay [1] (setting [5]) was found to be 44%; in assay [1] (setting [6]), 45%.

Regarding `CC1Oc2ccc(CCSCC(=O)O)cc2O1` (centres unmarked) [Example 12, Sodium [{2-(2-methyl-1,3-benzodioxol-5-yl)ethyl}-thio]acetate], the inhibition in vivo at 50 mg/kg in assay [1] (setting [5]) and in assay [1] (setting [6]) was 85% throughout.

As for `O=C(OCCSSCCc1ccc2c(c1)OCO2)c1cccnc1` [Compound 3, 2-[{2-(1,3-Benzodioxol-5-yl)ethyl}dithio]ethyl nicotinate], the inhibition in vivo at 100 mg/kg turned out to be 92% in assay [2] (setting [5]) and 62% in assay [2] (setting [6]).

In the case of `CC(C)c1cc2c(cc1CCSCC(=O)O)OCO2` [Compound 9], the results for the inhibition in vivo at 100 mg/kg in assay [3] (setting [5]) and in assay [3] (setting [6]) were 88% and 67%, respectively.

As for `c1ccc(CSCCc2ccc3c(c2)OCO3)nc1` [Example 7, 2-(1,3-Benzodioxol-5-yl)ethyl (pyridin-2-yl)methyl sulfide], the inhibition in vivo at 50 mg/kg came out at 37% in assay [1] (setting [5]) and 58% in assay [1] (setting [6]).

Regarding `N#CC[S+]([O-])CCc1ccc2c(c1)OCO2` (centres unmarked) [Compound 33], the inhibition in vivo at 50 mg/kg was determined as 82% in assay [1] (setting [5]) and 78% in assay [1] (setting [6]).

As to `CCCC(SCC(=O)O)c1ccc2c(c1)OCO2` (centres unmarked) [Compound 1], the inhibition in vivo at 100 mg/kg in assay [3] (setting [5]) amounted to 84%; in assay [3] (setting [6]) it was 100%.

On to `OCCSCCc1ccc2c(c1)OCO2` [Compound 3], for which the inhibition in vivo at 100 mg/kg in assay [4] (setting [5]) is 97%; in assay [4] (setting [6]) it was 94%.

For `CC(=O)CSCCc1ccc2c(c1)OCO2` [Example 1, [{2-(1,3-Benzodioxol-5-yl)ethyl}thio]propan-2-one], the inhibition in vivo at 50 mg/kg worked out at 89% in assay [1] (setting [5]) and 100% in assay [1] (setting [6]).

On to `CC(C)S(=O)(=O)CCc1ccc2c(c1)OCO2` [Compound 36], for which the inhibition in vivo at 50 mg/kg in assay [1] (setting [5]) is 59%; in assay [1] (setting [6]), 68%.

`O=C(O)CSCCc1ccc2c(c1)OCO2` [Compound 8, Sodium [{2-(1,3-benzodioxol-5-yl)ethyl}thio]acetate]: the inhibition in vivo at 100 mg/kg in assay [4] (setting [5]) and in assay [4] (setting [6]) was 97% in each case.

As to `CC(C)(SCC(N)=O)c1ccc2c(c1)OCO2` [Compound 11], the inhibition in vivo at 100 mg/kg in assay [3] (setting [5]) was determined as 97%; in assay [3] (setting [6]), 68%.

On to `c1ccc(CCSSCCCc2ccc3c(c2)OCO3)cc1` [Compound 6, 3-(1,3-Benzodioxol-5-yl)propyl phenethyl disulfide], for which the inhibition in vivo at 100 mg/kg in assay [2] (setting [5]) is 55%; in assay [2] (setting [6]), 53%.

With `CCS(=O)(=O)CCc1ccc2c(c1)OCO2` [Compound 35], the inhibition in vivo at 50 mg/kg in assay [1] (setting [5]) amounted to 76%; in assay [1] (setting [6]), 60%.

For the molecule `O=C(OCCSSCc1ccc2c(c1)OCO2)c1cccnc1` [Compound 10, 2-[{(1,3-Benzodioxol-5-yl)methyl}dithio]ethyl nicotinate], the inhibition in vivo at 100 mg/kg in assay [2] (setting [5]) was 72%; in assay [2] (setting [6]), 43%.

In the case of `CC(=O)CS(=O)(=O)CCc1ccc2c(c1)OCO2` [Compound 34], the inhibition in vivo at 50 mg/kg was 37% in assay [1] (setting [5]) and 17% in assay [1] (setting [6]).

As for `CC(Cc1ccc2c(c1)OCO2)SSC(C)Cc1ccc2c(c1)OCO2` (centres unmarked) [compound 11], the inhibition in vivo at 100 mg/kg in assay [2] (setting [5]) came to 76%; in assay [2] (setting [6]), 68%.

For the molecule `CC(Cc1ccc2c(c1)OCO2)SSCCO` (centres unmarked) [Compound 12, 2-[{2-(1,3-Benzodioxol-5-yl)-1-methylethyl}dithio]ethanol], the inhibition in vivo at 100 mg/kg in assay [2] (setting [5]) amounted to 63%; in assay [2] (setting [6]), 45%.

Turning to `OCCSSCCc1ccc2c(c1)OCO2` [Compound 1, 2-[{2-(1,3-Benzodioxol-5-yl)ethyl}dithio]ethanol], the inhibition in vivo at 100 mg/kg in assay [2] (setting [5]) came out at 92%; in assay [2] (setting [6]), 62%.

Turning to `SCCc1ccc2c(c1)OCO2` [Compound 1, 2-(1,3-Benzodioxol-5-yl)ethanethiol], the inhibition in vivo at 100 mg/kg in assay [4] (setting [5]) was 91%; in assay [4] (setting [6]) it was 96%.

As to `CCC(Cc1ccc2c(c1)OCO2)SCC(=O)O` (centres unmarked) [Example 26, Sodium [[1-{(1,3-benzodioxol-5-yl)methyl}propyl]thio]acetate], the values for the inhibition in vivo at 50 mg/kg in assay [1] (setting [5]) and in assay [1] (setting [6]) were 53% and 48%, respectively.

For the molecule `c1cc2c(cc1CCSSCCc1ccc3c(c1)OCO3)OCO2` [Compound 2, Bis{2-(1,3-benzodioxol-5-yl)ethyl}disulfide], the results for the inhibition in vivo at 100 mg/kg in assay [2] (setting [5]) and in assay [2] (setting [6]) were 64% and 57%, respectively.

Take `CN(C)C(=O)CCSCCc1ccc2c(c1)OCO2` [Compound 19]: the inhibition in vivo at 100 mg/kg in assay [4] (setting [5]) was determined as 69%; in assay [4] (setting [6]) it was 90%.

Regarding `CC(C)(SCCc1ccc2c(c1)OCO2)C(=O)O` [Example 4, Sodium 2-methyl-2-[{2-(1,3-benzodioxol-5-yl)ethyl}thio]propionate], the inhibition in vivo at 50 mg/kg came to 84% in assay [1] (setting [5]) and 91% in assay [1] (setting [6]).

`CCCCCCCCCSSCCCc1ccc2c(c1)OCO2` [Compound 9, 3-(1,3-Benzodioxol-5-yl)propyl nonyl disulfide]: the inhibition in vivo at 100 mg/kg in assay [2] (setting [5]) is 53%; in assay [2] (setting [6]), 49%.

As to `c1cc(CSCCc2ccc3c(c2)OCO3)ccn1` [Example 6, 2-(1,3-Benzodioxol-5-yl)ethyl (pyridin-4-yl)methyl sulfide], the inhibition in vivo at 50 mg/kg in assay [1] (setting [5]) was determined as 64%; in assay [1] (setting [6]) it was 76%.

For the molecule `N#CCSCCc1ccc2c(c1)OCO2` [Example 2, [{2-(1,3-Benzodioxol-5-yl)ethyl}thio]acetonitrile], the inhibition in vivo at 50 mg/kg came to 88% in assay [1] (setting [5]) and 100% in assay [1] (setting [6]).

Regarding `O=C(OCCSSCCCc1ccc2c(c1)OCO2)c1cccnc1` [compound 7], the values for the inhibition in vivo at 100 mg/kg in assay [2] (setting [5]) and in assay [2] (setting [6]) were 72% and 43%, respectively.

`Cc1cc2c(cc1C(C)SCC(=O)O)OCO2` (centres unmarked) [Compound 3]: the inhibition in vivo at 100 mg/kg in assay [3] (setting [5]) and in assay [3] (setting [6]) was 100% each time.

As for `c1ncc(CSCCc2ccc3c(c2)OCO3)[nH]1` [Compound 8], the figures for the inhibition in vivo at 50 mg/kg in assay [1] (setting [5]) and in assay [1] (setting [6]) were 28% and 61%, respectively.

In the case of `Cc1cc2c(cc1CCSCC(=O)O)OCO2` [Compound 16], the inhibition in vivo at 50 mg/kg in assay [1] (setting [5]) came out at 25%; in assay [1] (setting [6]), 41%.

`N#CCS(=O)(=O)CCc1ccc2c(c1)OCO2` [Compound 37]: the figures for the inhibition in vivo at 50 mg/kg in assay [1] (setting [5]) and in assay [1] (setting [6]) were 52% and 44%, respectively.

Regarding `O=C(O)CCCCCSCCc1ccc2c(c1)OCO2` [Compound 12], the inhibition in vivo at 50 mg/kg in assay [4] (setting [5]) worked out at 69%; in assay [4] (setting [6]) it was 75%.

For `CC(C)(SCC(=O)O)c1ccc2c(c1)OCO2` [Compound 2], the inhibition in vivo at 100 mg/kg in assay [3] (setting [5]) turned out to be 76%; in assay [3] (setting [6]), 83%.

In the case of `Cc1cc2c(cc1C(C)SCC(N)=O)OCO2` (centres unmarked) [Compound 13], the inhibition in vivo at 100 mg/kg came to 50% in assay [3] (setting [5]) and 17% in assay [3] (setting [6]).

As to `Cc1cc2c(cc1CSCC(=O)O)OCO2` [Compound 6], the inhibition in vivo at 100 mg/kg in assay [3] (setting [5]) and in assay [3] (setting [6]) was 100% throughout.

Consider `COCCSCCc1ccc2c(c1)OCO2` [Compound 6], for which the inhibition in vivo at 100 mg/kg in assay [4] (setting [5]) was 79%; in assay [4] (setting [6]), 93%.

Take `CCC(SCC(=O)O)c1cc2c(cc1C)OCO2` (centres unmarked) [Compound 4]: the inhibition in vivo at 100 mg/kg in assay [3] (setting [5]) was determined as 89%; in assay [3] (setting [6]), 100%.

For `[O-][S+](CCO)CCc1ccc2c(c1)OCO2` (centres unmarked) [Compound 27], the figures for the inhibition in vivo at 100 mg/kg in assay [4] (setting [5]) and in assay [4] (setting [6]) were 54% and 65%, respectively.

Turning to `O=C(O)CNC(=O)CSCCc1ccc2c(c1)OCO2` [Compound 23], the inhibition in vivo at 100 mg/kg in assay [4] (setting [5]) is 77%; in assay [4] (setting [6]), 92%.
